The values that follow come from patent publication US8394848B2, “Compounds that modulate intracellular calcium” (Calcimedica, Inc., priority 2008, dated 2013).

The test deals with JR251 or RBL cells. Put plainly: Store-operated calcium entry, either JR251 or RBL cells, or both. The format is cell-based. As for the experimental part: The day prior to performing the assay, RBL-2H3 cells are plated in 50 μL of complete medium in a 384 well plate. Cells are grown at 37° C./6% CO2 overnight and grow to 50-60% confluence by the next day. On the assay day, 1.5 μM Fluo-4-AM dye (Invitrogen) in complete medium is added and incubated for 1 hour at RT. Cells are washed twice in Ca^2+-free HBSS buffer and 35 μL Ca^2+-free HBSS buffer is added to each well. 10 μL of a test compound prepared in a Ca^2+-free HBSS solution at 4.5× of the desired concentration is added to a well and incubated for 5 minutes at RT. 10 μL of thapsigargin prepared in a Ca^2+-free HBSS solution at 5.5× of the desired concentration (5.5 uM) is added to each well and incubated for an additional 25 minutes. The initial baseline fluorescence signal is measured with a FLIPR^384 (Molecular Devices) plate reader. 5 μL of 12× calcium in HBSS (12 mM) is added and changes in cellular fluorescence are measured with the FLIPR^384 plate reader. In each well, the change in the fluorescent signal as a function of time due to calcium entry into the cell is determined by calculating the difference between the fluorescent signal measured 7 seconds after calcium addition and the initial baseline fluorescence signal at time zero (t=0). This parameter is designated Upslope. The IC50 value is calculated as the concentration at which 50% of the Upslope is inhibited.

The structures appear in SMILES notation.

What is called IC50 is the concentration that gives 50% inhibition. On to `Cc1ccc(-c2csc(NC(=O)c3nc4ccc(Br)cc4o3)c2C(=O)O)c(F)c1F` [2-(6-bromobenzo[d]oxazole-2-carboxamido)-4-(2,3-difluoro-4-methylphenyl)thiophene-3-carboxylic acid], for which the IC50 was under 10 µM.

For the molecule `Cc1ccc(-c2csc(NC(=O)c3nc4cccc(Br)c4o3)c2C(=O)O)c(F)c1F` [2-(7-bromobenzo[d]oxazole-2-carboxamido)-4-(2,3-difluoro-4-methylphenyl)thiophene-3-carboxylic acid], the IC50 is under 10 µM.

Consider `O=C(Nc1scc(-c2ccc(Cl)cc2)c1C(=O)O)c1nc2cccc(Br)c2o1` [2-(7-bromobenzo[d]oxazole-2-carboxamido)-4-(4-chlorophenyl) thiophene-3-carboxylic acid], for which the IC50 is under 10 µM.

Consider `Cc1ccc(-c2csc(NC(=O)c3nc4cccc(C#N)c4o3)c2C(=O)O)c(F)c1F` [2-(7-cyanobenzo[d]oxazole-2-carboxamido)-4-(2,3-difluoro-4-methylphenyl)thiophene-3-carboxylic acid], for which the IC50 was under 10 µM.

On to `O=C(Nc1scc(-c2cc3cccc(O)c3o2)c1C(=O)O)c1nc2cccc(F)c2o1` [2-(7-fluorobenzo[d]oxazole-2-carboxamido)-4-(7-hydroxybenzofuran-2-yl)thiophene-3-carboxylic acid], for which the IC50 is under 10 µM.

On to `O=C(Nc1scc(-c2cc3cccc(O)c3o2)c1C(=O)O)c1cc2cccc(O)c2o1` [2-(7-hydroxybenzofuran-2-carboxamido)-4-(7-hydroxybenzofuran-2-yl)thiophene-3-carboxylic acid], for which the IC50 was under 10 µM.

In the case of `O=C(Nc1scc(-c2ccc(Cl)cc2)c1C(=O)O)OCc1ccccc1Cl` [2-((2-chlorobenzyloxy)carbonylamino)-4-(4-chlorophenyl)thiophene-3-carboxylic acid], the concentration for half-maximal inhibition (IC50) was under 10 µM.

For `Cc1ccc(-c2csc(NC(=O)c3ccc4snnc4c3)c2C(=O)O)c(F)c1F` [2-(benzo[d][1,2,3]thiadiazole-5-carboxamido)-4-(2,3-difluoro-4-methylphenyl)thiophene-3-carboxylic acid], the IC50 is under 10 µM.

As to `O=C(Nc1scc(-c2ccc(Cl)c(Cl)c2)c1C(=O)O)c1ccc2snnc2c1` [2-(benzo[d][1,2,3]thiadiazole-5-carboxamido)-4-(3,4-dichlorophenyl)thiophene-3-carboxylic acid], the IC50 is under 10 µM.

As to `O=C(Nc1scc(-c2ccc(Br)cc2)c1C(=O)O)c1ccc2snnc2c1` [2-(benzo[d][1,2,3]thiadiazole-5-carboxamido)-4-(4-bromophenyl)thiophene-3-carboxylic acid], the IC50 is under 10 µM.

With `O=C(Nc1scc(-c2ccc(Cl)c(F)c2)c1C(=O)O)c1ccc2snnc2c1` [2-(benzo[d][1,2,3]thiadiazole-5-carboxamido)-4-(4-chloro-3-fluorophenyl)thiophene-3-carboxylic acid], the IC50 is under 10 µM.

On to `COc1cc(-c2csc(NC(=O)c3ccc4snnc4c3)c2C(=O)O)ccc1Cl` [2-(benzo[d][1,2,3]thiadiazole-5-carboxamido)-4-(4-chloro-3-methoxyphenyl)thiophene-3-carboxylic acid], for which the IC50 is under 10 µM.

Consider `O=C(Nc1scc(-c2ccc(Cl)cc2)c1C(=O)O)c1ccc2snnc2c1` [2-(benzo[d][1,2,3]thiadiazole-5-carboxamido)-4-(4-chlorophenyl)thiophene-3-carboxylic acid], for which the IC50 is under 10 µM.

Turning to `N#Cc1ccc(-c2csc(NC(=O)c3ccc4snnc4c3)c2C(=O)O)cc1` [2-(benzo[d][1,2,3]thiadiazole-5-carboxamido)-4-(4-cyanophenyl)thiophene-3-carboxylic acid], the IC50 was under 10 µM.

With `O=C(Nc1scc(-c2cc3cccc(O)c3o2)c1C(=O)O)c1ccc2snnc2c1` [2-(benzo[d][1,2,3]thiadiazole-5-carboxamido)-4-(7-hydroxybenzofuran-2-yl)thiophene-3-carboxylic acid], the IC50 was under 10 µM.

On to `COc1cccc2cc(-c3csc(NC(=O)c4ccc5snnc5c4)c3C(=O)O)oc12` [2-(benzo[d][1,2,3]thiadiazole-5-carboxamido)-4-(7-methoxybenzofuran-2-yl)thiophene-3-carboxylic acid], for which the IC50 was under 10 µM.

Turning to `O=C(Nc1scc(-c2ccc(Br)cc2)c1C(=O)O)c1ccc2nnsc2c1` [2-(benzo[d][1,2,3]thiadiazole-6-carboxamido)-4-(4-bromophenyl)thiophene-3-carboxylic acid], the IC50 was under 10 µM.

On to `O=C(Nc1scc(-c2ccc(Cl)cc2)c1C(=O)O)c1ccc2nnsc2c1` [2-(benzo[d][1,2,3]thiadiazole-6-carboxamido)-4-(4-chlorophenyl)thiophene-3-carboxylic acid], for which the IC50 is under 10 µM.

On to `O=C(Nc1scc(-c2cc3cccc(O)c3o2)c1C(=O)O)c1ccc2nnsc2c1` [2-(benzo[d][1,2,3]thiadiazole-6-carboxamido)-4-(7-hydroxybenzofuran-2-yl)thiophene-3-carboxylic acid], for which the IC50 was under 10 µM.

`O=C(Nc1scc(-c2ccc(F)c(F)c2F)c1C(=O)O)c1nc2ccccc2o1` [2-(benzo[d]oxazole-2-carboxamido)-4-(2,3,4-trifluorophenyl)thiophene-3-carboxylic acid]: the IC50 is under 10 µM.

`Cc1ccc(-c2csc(NC(=O)c3nc4ccccc4o3)c2C(=O)O)c(F)c1F` [2-(benzo[d]oxazole-2-carboxamido)-4-(2,3-difluoro-4-methylphenyl)thiophene-3-carboxylic acid]: the IC50 was under 10 µM.

On to `O=C(Nc1scc(-c2ccc3c(c2)CCC3)c1C(=O)O)c1nc2ccccc2o1` [2-(benzo[d]oxazole-2-carboxamido)-4-(2,3-dihydro-1H-inden-5-yl)thiophene-3-carboxylic acid], for which the IC50 is under 10 µM.

On to `O=C(Nc1scc(-c2ccc3c(c2)CCO3)c1C(=O)O)c1nc2ccccc2o1` [2-(benzo[d]oxazole-2-carboxamido)-4-(2,3-dihydrobenzofuran-5-yl)thiophene-3-carboxylic acid], for which the IC50 was under 10 µM.

On to `O=C(Nc1scc(-c2ccc(F)c(O)c2F)c1C(=O)O)c1nc2ccccc2o1` [2-(benzo[d]oxazole-2-carboxamido)-4-(2,4-difluoro-3-hydroxyphenyl)thiophene-3-carboxylic acid], for which the IC50 was under 10 µM.

With `COc1c(F)ccc(-c2csc(NC(=O)c3nc4ccccc4o3)c2C(=O)O)c1F` [2-(benzo[d]oxazole-2-carboxamido)-4-(2,4-difluoro-3-methoxyphenyl)thiophene-3-carboxylic acid], the IC50 was under 10 µM.

Consider `O=C(Nc1scc(-c2ccc(F)cc2F)c1C(=O)O)c1nc2ccccc2o1` [2-(benzo[d]oxazole-2-carboxamido)-4-(2,4-difluorophenyl)thiophene-3-carboxylic acid], for which the IC50 was under 10 µM.

Consider `O=C(Nc1scc(-c2ccc(C(F)(F)F)cc2Cl)c1C(=O)O)c1nc2ccccc2o1` [2-(benzo[d]oxazole-2-carboxamido)-4-(2-chloro-4-(trifluoromethyl)phenyl)thiophene-3-carboxylic acid], for which the IC50 was under 10 µM.

`COc1ccc(-c2csc(NC(=O)c3nc4ccccc4o3)c2C(=O)O)c(Cl)c1` [2-(benzo[d]oxazole-2-carboxamido)-4-(2-chloro-4-methoxyphenyl)thiophene-3-carboxylic acid]: the IC50 is under 10 µM.

For `Cc1ccc(-c2csc(NC(=O)c3nc4ccccc4o3)c2C(=O)O)c(Cl)c1` [2-(benzo[d]oxazole-2-carboxamido)-4-(2-chloro-4-methylphenyl)thiophene-3-carboxylic acid], the IC50 is under 10 µM.

For `O=C(Nc1scc(-c2ccc(C(F)(F)F)cc2F)c1C(=O)O)c1nc2ccccc2o1` [2-(benzo[d]oxazole-2-carboxamido)-4-(2-fluoro-4-(trifluoromethyl)phenyl)thiophene-3-carboxylic acid], the IC50 is under 10 µM.

As for `Cc1ccc(-c2csc(NC(=O)c3nc4ccccc4o3)c2C(=O)O)c(F)c1` [2-(benzo[d]oxazole-2-carboxamido)-4-(2-fluoro-4-methylphenyl)thiophene-3-carboxylic acid], the IC50 was under 10 µM.

With `COc1cc(C(F)(F)F)ccc1-c1csc(NC(=O)c2nc3ccccc3o2)c1C(=O)O` [2-(benzo[d]oxazole-2-carboxamido)-4-(2-methoxy-4-(trifluoromethyl)phenyl)thiophene-3-carboxylic acid], the IC50 is under 10 µM.

For `Cc1cc(C(F)(F)F)ccc1-c1csc(NC(=O)c2nc3ccccc3o2)c1C(=O)O` [2-(benzo[d]oxazole-2-carboxamido)-4-(2-methyl-4-(trifluoromethyl)phenyl)thiophene-3-carboxylic acid], the IC50 is under 10 µM.

Regarding `O=C(Nc1scc(-c2cc(F)c(F)c(F)c2)c1C(=O)O)c1nc2ccccc2o1` [2-(benzo[d]oxazole-2-carboxamido)-4-(3,4,5-trifluorophenyl)thiophene-3-carboxylic acid], the IC50 was under 10 µM.

On to `O=C(Nc1scc(-c2ccc(Cl)c(Cl)c2)c1C(=O)O)c1nc2ccccc2o1` [2-(benzo[d]oxazole-2-carboxamido)-4-(3,4-dichlorophenyl)thiophene-3-carboxylic acid], for which the IC50 was under 10 µM.

As to `Cc1ccc(-c2csc(NC(=O)c3nc4ccccc4o3)c2C(=O)O)cc1C` [2-(benzo[d]oxazole-2-carboxamido)-4-(3,4-dimethylphenyl)thiophene-3-carboxylic acid], the IC50 was under 10 µM.
